# Test results reported in ChEMBL document CHEMBL5154856, “Targeting the tumor microenvironment by an enzyme-responsive prodrug of tubulin destabilizer for triple-negative breast cancer therapy with high safety” (Eur J Med Chem, 2022).
# Legend:
# [1] = Toxicity in nude mouse assessed as effect on eosinophil level at 40 mg/kg, iv administered qd for 3 days (reference value: 6 %); type: organism-based; settings: in vivo, 72 h, time 3 day
# [2] = Toxicity in nude mouse assessed as ratio of effect on aspartate aminotransferase level […] level in serum at 40 mg/kg, iv administered qd for 3 days (reference value: 1.38); type: organism-based; settings: in vivo, 72 h, time 3 day
# HeLa = assay: Antiproliferative activity against human HeLa cells assessed as inhibition of cell growth incubated for 48 hrs in presence of beta-glucuronidase by MTT assay; type: functional, cell-based
# [3] = Chemical stability of compound at pH 7.4 in PBS buffer at 1 mg incubated for 48 hrs by HPLC analysis; type: physicochemical; settings: pH 7.4, 48 h
# [4] = Aqueous solubility of compound in PBS at pH 7.4 at 1 mg incubated for 10 mins by HPLC analysis; type: physicochemical
# [5] = Toxicity in nude mouse assessed as effect on alkaline phosphatase level in serum at 40 mg/kg, iv administered qd for 3 days (reference value: 66 U/L); type: organism-based; settings: in vivo, 72 h, time 3 day
# [6] = Cardiotoxicity in nude mouse assessed as prolonged QT intervals at 20 to 40 mg/kg, iv administered once daily for 3 days by ECG analysis; type: toxicity, organism-based; settings: in vivo, 72 h, dose 20-40 mg/kg, time 3 day
# [7] = Toxicity in nude mouse assessed as effect on mean corpuscular hemoglobin concentration at 40 mg/kg, iv administered qd for 3 days (reference value: 473 g/L); type: organism-based; settings: in vivo, 72 h, time 3 day
# [8] = Toxicity in nude mouse xenografted with human MDA-MB-231 cells assessed as effect on body weight at 20 to 40 mg/kg, iv administered every 2 days for 14 days; type: organism-based; settings: in vivo, 336 h, dose 20-40 mg/kg, time 14 day
# [9] = Stability of compound in phosphate buffer at pH 7.4 assessed as Escherichia coli beta-glucuronidase mediated compound cleavage at 1.2 mg measured after 30 mins by HPLC analysis; type: ADME; settings: pH 7.4, 0.5 h
# [10] = Toxicity in nude mouse assessed as effect on white blood cell count at 40 mg/kg, iv administered qd for 3 days (reference value: 0.02 10^9/L); type: organism-based; settings: in vivo, 72 h, time 3 day
# [11] = Toxicity in nude mouse assessed as effect on total bilirubin level in serum at 40 mg/kg, iv administered qd for 3 days (reference value: 3.3 micromol/L); type: organism-based; settings: in vivo, 72 h, time 3 day
# [12] = Toxicity in nude mouse assessed as effect on alanine aminotransferase level in serum at 40 mg/kg, iv administered qd for 3 days (reference value: 308 U/L); type: organism-based; settings: in vivo, 72 h, time 3 day
smiles,measurement,setting,value
COc1ccc([C@H]2[C@H](CO)C(=O)N2c2cc(OC)c(OC)c(OC)c2)cc1OCc1ccc(O[C@@H]2O[C@H](C(=O)O)[C@@H](O)[C@H](O)[C@H]2O)cc1,Activity,[1],6.2%
same,Ratio,[2],1.59
same,IC50,HeLa,8.9 nM
same,Stability,[3],Stable
same,solubility at 10 min,[4],> 40 mg/mL
same,Activity,[5],56 U/L
same,Activity,[6],Non-Toxic
same,Activity,[7],512 g/L
same,Activity,[8],Non-Toxic
same,Stability,[9],Unstable
same,Activity,[10],0.12 10^9/L
same,Activity,[11],3.9 µmol/L
same,Activity,[12],316 U/L
